Consider 7 compounds from US7371841B2, “Methods of modulating cold sensory perception” (Regents of the University of California, priority 2002, dated 2008).

SMILES strings stand for the structures. Read-outs that look alike come from different tables or passages of the source.

Experiment [1] concerns the target T1, CMR1 (Rattus norvegicus, UniProt Q8R455, N449H). In words: Two-electrode voltage-clamp of Xenopus oocytes expressing the cloned cold/menthol receptor. It counts as cell-based. Details: open reading frame of 3312 bp that is predicted to encode a protein of 1104 amino acids; expressed in transfected cells; host or cells: Xenopus laevis oocytes (cRNA injection). The settings on record: for EC50: room temperature, voltage clamp at -60 mV; for electrophysiological response of receptor-expressing oocytes: menthone, camphor, cyclohexanol applied near limits of solubility (>500 μM). Here is the method:
cRNA transcripts were synthesized and injected into Xenopus laevis oocytes as described (Brake, supra). Two-electrode voltage-clamp recordings were performed 2-7 days post-injection. Dose-response curves for cooling compounds were performed at room temperature (22-24° C.). AG-3-5 (icilin) was provided by Dr. E. Wei, University of California, Berkeley. Temperature ramps were generated by heating (˜35° C.) or cooling (˜4° C.) the perfusate in a Harvard coil and monitoring temperature changes with a thermister placed near the oocyte.

Experiment [2] concerns trigeminal neurons. In words: Whole-cell patch-clamp recordings of dissociated trigeminal neurons. It counts as cell-based, rat. Conditions: for membrane currents elicited in trigeminal neurons: compared to an equivalent dose of menthol. Here is the method: Trigeminal ganglia were removed from newborn S/D rats, placed in ice-cold culture medium (MEM Eagle's with Earle's BSS supplemented with 10% horse serum, vitamins, penicillin/streptomycin and L-glutamine), cleaned of connective tissue/blood vessels and diced into 4-5 pieces. Ganglia were then transferred to 0.125% collagenase P (Boehringer) solution in CMF Hank's, shaken gently at 37° C. for 20 (P0 animals) to 30 min (P4 animals), pelleted, and resuspended in 0.05% STV at 37° C. for 2 min. Culture medium was added to inhibit enzymatic activity and ganglia were triturated gently with a fire-polished Pasteur pipette. Neurons were enriched by density gradient centrifugation as described (see, e.g., Eckert et al., J. Neurosci. Methods 77:183-90, 1997). Cells were resuspended in complete culture medium (MEM Eagle's/Earle's BSS with 10% horse serum, vitamins, penicillin/streptomycin, L-glutamine and 100 ng/ml NGF 7S (Invitrogen) and plated onto glass coverslips coated with PLO (1 mg/ml, Sigma) and laminin (5 μg/ml, Invitrogen). Cultures were maintained at 37° C. in 5% CO2 and examined 1-2 days after plating. Ca^2+ microfluorimetry was carried out as described (Caterina et al., Nature 389:816-24 (1997)). For cell selection prior to patch-clamp analysis, CaCl2 and pluronic acid were omitted from the loading buffer (nominally Ca^2+-free CIB). Cells in the recording chamber were perfused by gravity using the VC-6 valve control system (Warner Inst.).
Trigeminal neurons responding to […] menthol with an increase in intracellular Ca2+ were selected for patch-clamp recordings. HEK293 cells were cultured in DMEM with 10% fetal bovine serum and co-transfected (Lipofectamine 2000, Invitrogen) with 1 μg CMR1 plasmid and 0.1 μg enhanced green fluorescence reporter plasmid to identify transfected cells. Cells were plated onto PLO-coated coverslips the next day and examined two days after transfection. Gigaseals were formed with pipettes (Garner Glass type 7052, ID 1.1, OD 1.5) having a resistance of 3-5 MΩ in standard pipette solution. Whole-cell voltage clamp was performed at a holding potential of −60 mV with a 200 ms voltage ramp from −120 mV to +80 mV at 3.6 Hz. Data were acquired using Pulse-Pulsefit (HEKA GmbH) software. Recordings were filtered at 5 kHz and sampled at 20 kHz. Pipette solution for neuronal experiments contained (in mM) 140 CsCl, 1 EGTA, 0.6 MgCl2, 10 HEPES, pH 7.4 (adjusted with CsOH). Standard Ca^2+-free bath solution for whole-cell recordings contained (in mM) 140 NaCl, 4 KCl, 2 MgCl2, 100 nM TTX (Sigma), 10 TRIS, pH 7.4 (adjusted with HCl) with or without 100 nM dendrotoxin I (Sigma). For ion replacement experiments, pipette solution contained (in mM) 140 KCl, 5 CsCl, 1 EGTA, 0.6 MgCl2, 1 4-aminopyridine, 10 HEPES, pH 7.4 (adjusted with KOH). Bath solution contained (in mM) 140 NaCl, 4 KCl, 2 MgCl2, 100 nM TTX, 100 nM dendrotoxin I, 100 nM apamine (Sigma), 100 nM carybdotoxin (Sigma), 1 μω-conotoxin MVIIC, 1 μM GVIA (Latoxan), 10 TRIS, pH 7.4 (adjusted with HCl). For monovalent cation permeability experiments perfusate contained (in mM) 140 NaCl (or 140 KCl or 140 NMDG), 100 nM TTX, 1 μM nitrendipine (Sigma), 10 HEPES, 10 glucose, pH 7.4 (adjusted with NaOH, KOH or HCl, respectively). For divalent cation permeability experiments perfusate contained (in mM) 125 NMDG, 10 CaCl2, 100 nM TTX, 1 μM nitrendipine, 10 HEPES, 10 glucose, pH 7.4 (adjusted with HCl). […]

For experiment [3], the target named is T1, CMR1. The experiment in a line: Whole-cell patch-clamp of CMR1-transfected HEK293 cells. It counts as cell-based. On the set-up: open reading frame of 3312 bp that is predicted to encode a protein of 1104 amino acids; expressed in transfected cells. On the procedure:
Trigeminal neurons responding to […] menthol with an increase in intracellular Ca2+ were selected for patch-clamp recordings. HEK293 cells were cultured in DMEM with 10% fetal bovine serum and co-transfected (Lipofectamine 2000, Invitrogen) with 1 μg CMR1 plasmid and 0.1 μg enhanced green fluorescence reporter plasmid to identify transfected cells. Cells were plated onto PLO-coated coverslips the next day and examined two days after transfection. Gigaseals were formed with pipettes (Garner Glass type 7052, ID 1.1, OD 1.5) having a resistance of 3-5 MΩ in standard pipette solution. Whole-cell voltage clamp was performed at a holding potential of −60 mV with a 200 ms voltage ramp from −120 mV to +80 mV at 3.6 Hz. Data were acquired using Pulse-Pulsefit (HEKA GmbH) software. Recordings were filtered at 5 kHz and sampled at 20 kHz. Pipette solution for neuronal experiments contained (in mM) 140 CsCl, 1 EGTA, 0.6 MgCl2, 10 HEPES, pH 7.4 (adjusted with CsOH). Standard Ca^2+-free bath solution for whole-cell recordings contained (in mM) 140 NaCl, 4 KCl, 2 MgCl2, 100 nM TTX (Sigma), 10 TRIS, pH 7.4 (adjusted with HCl) with or without 100 nM dendrotoxin I (Sigma). For ion replacement experiments, pipette solution contained (in mM) 140 KCl, 5 CsCl, 1 EGTA, 0.6 MgCl2, 1 4-aminopyridine, 10 HEPES, pH 7.4 (adjusted with KOH). Bath solution contained (in mM) 140 NaCl, 4 KCl, 2 MgCl2, 100 nM TTX, 100 nM dendrotoxin I, 100 nM apamine (Sigma), 100 nM carybdotoxin (Sigma), 1 μω-conotoxin MVIIC, 1 μM GVIA (Latoxan), 10 TRIS, pH 7.4 (adjusted with HCl). For monovalent cation permeability experiments perfusate contained (in mM) 140 NaCl (or 140 KCl or 140 NMDG), 100 nM TTX, 1 μM nitrendipine (Sigma), 10 HEPES, 10 glucose, pH 7.4 (adjusted with NaOH, KOH or HCl, respectively). For divalent cation permeability experiments perfusate contained (in mM) 125 NMDG, 10 CaCl2, 100 nM TTX, 1 μM nitrendipine, 10 HEPES, 10 glucose, pH 7.4 (adjusted with HCl). […] Bath solution for on-cell single channel experiments contained (in mM): 150 NaCl, 1 MgCl2, 10 TRIS. Pipette solution for on-cell single channel experiments contained (in mM): 150 NaCl, 1 MgCl2, 0.1 EGTA, 10 TRIS and 5 or 25 μM menthol. Recordings were performed at 22° C. unless noted otherwise. Temperature ramps were generated by cooling or heating the perfusate in a jacketed coil (Harvard Inst.) connected to a thermostat. Temperature in the proximity of the patched cell was measured using a miniature thermocouple (type MT-29/2, Physitemp) and sampled using an ITC-18 A/D board (Instrutech) and Pulse software. Permeability ratios for monovalent cations to Na (PX/PNa) were calculated according to: PX/PNa=exp(ΔErev(Na-X)F/RT), where ΔErev(Na-X) equals the reversal potential change, F the Faraday's constant, R the universal gas constant and T the absolute temperature. For measurements of Ca^2+ permeability PCa/PNa was calculated according to Lewis, C. A. J. Physiol. 286:417-45, 1979, (equation A6).

Experiment [4] concerns trigeminal neurons. In words: Calcium imaging (Fura-2) of dissociated trigeminal neurons. It counts as cell-based, rat. The settings on record: capsaicin 1 μM. Here is the method: Trigeminal ganglia were removed from newborn S/D rats, placed in ice-cold culture medium (MEM Eagle's with Earle's BSS supplemented with 10% horse serum, vitamins, penicillin/streptomycin and L-glutamine), cleaned of connective tissue/blood vessels and diced into 4-5 pieces. Ganglia were then transferred to 0.125% collagenase P (Boehringer) solution in CMF Hank's, shaken gently at 37° C. for 20 (P0 animals) to 30 min (P4 animals), pelleted, and resuspended in 0.05% STV at 37° C. for 2 min. Culture medium was added to inhibit enzymatic activity and ganglia were triturated gently with a fire-polished Pasteur pipette. Neurons were enriched by density gradient centrifugation as described (see, e.g., Eckert et al., J. Neurosci. Methods 77:183-90, 1997). […]

Where [5] appears, read: normalized to 500 μM menthol, read-out: EC50 of evoked membrane currents.

T1 sequence (Q8R455 whole entry N449H): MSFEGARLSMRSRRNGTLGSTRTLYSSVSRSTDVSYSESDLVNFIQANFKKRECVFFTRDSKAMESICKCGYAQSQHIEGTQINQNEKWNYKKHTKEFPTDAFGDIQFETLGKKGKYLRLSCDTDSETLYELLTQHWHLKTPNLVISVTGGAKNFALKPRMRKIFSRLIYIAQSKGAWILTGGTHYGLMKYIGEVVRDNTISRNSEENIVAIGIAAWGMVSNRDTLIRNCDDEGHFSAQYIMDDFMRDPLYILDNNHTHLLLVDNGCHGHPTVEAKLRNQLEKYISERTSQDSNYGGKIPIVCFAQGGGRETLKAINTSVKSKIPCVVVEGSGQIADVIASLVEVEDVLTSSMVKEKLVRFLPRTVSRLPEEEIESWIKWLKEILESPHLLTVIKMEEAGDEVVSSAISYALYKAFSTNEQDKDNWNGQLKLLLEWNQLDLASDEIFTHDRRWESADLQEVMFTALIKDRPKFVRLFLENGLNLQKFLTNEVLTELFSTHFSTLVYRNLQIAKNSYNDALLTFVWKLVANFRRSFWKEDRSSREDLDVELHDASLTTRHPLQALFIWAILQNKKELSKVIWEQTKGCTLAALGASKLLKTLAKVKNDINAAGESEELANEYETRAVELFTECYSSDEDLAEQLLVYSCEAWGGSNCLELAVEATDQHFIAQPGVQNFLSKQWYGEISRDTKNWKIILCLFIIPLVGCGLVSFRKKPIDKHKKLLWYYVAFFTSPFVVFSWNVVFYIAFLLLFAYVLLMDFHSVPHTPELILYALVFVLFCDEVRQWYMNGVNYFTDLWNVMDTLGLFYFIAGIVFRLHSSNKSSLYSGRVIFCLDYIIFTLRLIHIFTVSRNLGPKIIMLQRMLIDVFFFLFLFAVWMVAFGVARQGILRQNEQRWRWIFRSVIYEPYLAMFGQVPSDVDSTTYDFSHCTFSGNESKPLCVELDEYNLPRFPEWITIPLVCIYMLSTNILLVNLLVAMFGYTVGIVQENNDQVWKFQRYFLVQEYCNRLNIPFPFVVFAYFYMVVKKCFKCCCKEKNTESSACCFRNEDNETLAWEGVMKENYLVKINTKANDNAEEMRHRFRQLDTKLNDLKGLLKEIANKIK

Regarding `CC12CCC(CC1)C(C)(C)O2` [Eucalyptol], in experiment [1] (read-out: potency (EC50) of evoked membrane currents), the EC50 was 3400 ± 400 µM.
As to `CC1CCC(C(C)C)C(O)C1` (stereo not shown) [menthol], the “electrophysiological response of receptor-expressing oocytes” value (shortened to “electrophysiological response”) in experiment [1] is given as “Robust responses”. Moreover, the EC50 in experiment [1] (setting [5]) was 66.7 ± 3.3 µM; in experiment [2] (Rattus norvegicus, Neuron, room temperature, Vhold=-60 mV, currents normalized to 1 mM menthol, read-out: half-maximal effective concentration (EC50) of evoked inward currents), 80 ± 2.4 µM. Also, the “saturation temperature of cold-activated currents in the presence of the compound” value in experiment [1] (sub-activating menthol (20 mM printed), without menthol 8.2±0.3° C., n=7) was 15.6±0.4 °C. Besides, the “threshold temperature of cold-activated currents in the presence of the compound” value in experiment [1] (sub-activating menthol (20 mM printed), without menthol 25.8±0.4° C., n=7) was 29.7±0.3 °C. Also, the “thermal threshold of cold-evoked currents in the presence of the compound” value in experiment [2] (10 μM menthol, threshold without menthol 27.1±0.5° C., n=4) came out at 29.6±0.3 °C. The “Hill coefficient (η)” value in experiment [2] (fit of concentration-response data to the Hill equation) came to 2.2. Also, the “desensitization: decrease in peak current between first and second application” value was 53.9±1.7% in experiment [3] (2.5 mM extracellular Ca2+, n=3) and 9.1±7% in experiment [3] (nominally calcium-free bath solution, n=3). The “effect on cold-evoked currents” value in experiment [3] (sub-activating dose 10 μM menthol) is recorded as “markedly potentiated”.
For `CC12CCC(CC1=O)C2(C)C` (stereo not shown) [camphor], the “electrophysiological response” value in experiment [1] is on record as “little or no effect”.
On to `OC1CCCCC1` [cyclohexanol], for which the “membrane currents elicited in trigeminal neurons” value in experiment [2] is “no effect”.
With `O=C1NC(c2cccc([N+](=O)[O-])c2)=CCN1c1ccccc1O` [icilin], in experiment [1], the “efficacy compared to menthol” value was around 2.5 fold and the “electrophysiological response” value was “Robust responses”. In addition, the “potency relative to menthol” value in experiment [1] (ratio of EC50 values) is given as around 200 fold. Moreover, in experiment [1] (setting [5]), the EC50 is 0.36 ± 0.03 µM. The “desensitization of evoked currents relative to peak currents” value in experiment [3] (20 s after application, n=3) was 78.8±17%. Moreover, in experiment [3] (no extracellular calcium), the “activity in the absence of extracellular calcium” value was “essentially inactive”.
`CC(C)[C@@H]1CC[C@@H](C)CC1=O` [menthone]: the “membrane currents elicited in trigeminal neurons” value in experiment [2] is on record as “very small currents”.
`COc1cc(CNC(=O)CCCC/C=C/C(C)C)ccc1O` [capsaicin]: the “electrophysiological response” value in experiment [1] was “did not elicit responses”. Also, in experiment [4], the “fraction of menthol/cold-sensitive neurons also activated” value is listed as 54.5±6.1%.
